Reference: patent US20130211079A1, “SUBSTITUTED HETEROCYCLES AS THERAPEUTIC AGENTS FOR TREATING CANCER” (priority 2010, published 2013)

Assays:
Aqueous solubility = type: physicochemical; conditions: PB11 compared with PB2
Description: The present inventor rationalized, therefore, that derivatization of an inventive compound to a more hydrophilic drugable molecule, for instance via amidation of a carboxylic acid group or the amidation of an ester group could potentially improve water solubility, binding affinity and bioavailability. See below for synthetic methodology.

p53-hMDM2 complex = target: T1, p53-hMDM2 complex (Homo sapiens, UniProt Q00987); assay: 1D AIDA-NMR antagonist-induced dissociation assay; type: binding; conditions: p53 (res. 1-321) + Hdm2 (res. 1-125); FIG. 3
T1 construct: complex of p53 (res. 1-321)+Hdm2 (res. 1-125)

Hdm2 = Hdm2 (Homo sapiens, UniProt Q00987); conditions: KD; method for each compound in column 'Method of KD calculation' (bin. titr., AIDA, FP, SPR)
Sequence of Hdm2 (Q00987 1-125): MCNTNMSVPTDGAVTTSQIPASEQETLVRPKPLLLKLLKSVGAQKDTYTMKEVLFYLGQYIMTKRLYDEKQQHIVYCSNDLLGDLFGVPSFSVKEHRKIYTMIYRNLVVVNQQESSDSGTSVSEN
Description: The affinities of imidazoline compounds of the present invention towards MDM2 or MDM4 proteins was measured by 2D H^1—N^15 HSQC NMR spectroscopy.
Water suppression was carried out using the WATERGATE sequence. NMR spectra were acquired at 300 K on a Bruker DRX 600 MHz spectrometer equipped with a cryoprobe and the data was processed using the Bruker program Xwin-NMR V. 3.5.
NMR ligand binding experiments were carried out in an analogous way to those previously described. […] For instance, 500 μL of the protein sample, at a concentration of about 0.1 mM, in 10% D2O and a 20 mM stock solution of nutin-3 (purchased from Cayman Chemical, MI) in DMSO-d6 were used in all experiments. […]
For example, 500 μL of the protein sample, at a concentration of about 0.1 mM, in 10% D2O and a 20 mM stock solution of nutin-3 (purchased from Cayman Chemical, MI) in DMSO-d6 were used in all of the experiments. […] The ^1H—^15N—HSQC spectra were recorded using fast HSQC pulse sequence as described by Mori et al., J. Magn. […]
The fluorescence intensities parallel (Intparallel) and perpendicular (Intperpedicular) to the plane of excitation were measured in black 384-well NBS assay plates (Corning) at room temperature (˜20° C.). […]
All fluorescence polarization values were expressed in millipolarization units (mP). […] Plates were read at 30 min after mixing all assay components. […]

T1 sequence (Q00987 1-125, one chain of several): as the sequence (Q00987 1-125) above

water solubility (Aqueous solubility) | disruption of p53-hMDM2 complex (reappearance of Trp23 peak of p53) (p53-hMDM2 complex) | Binding to Hdm2 (Hdm2) | Compound
improved | dissociation of the p53-hMDM2 complex |  | CC(C)C[C@@]1(C(=O)NCCc2ccncc2)N=CN(CC2CC2)C1c1ccc(Cl)cc1 (mixture of isomers) [PB11, cis-5-(4-chlorophenyl)-1-(cyclopropylmethyl)-4-isobutyl-N-(2-(pyridin-4-yl)ethyl)-4,5-dihydro-1H-imidazole-4-carboxamide]
 |  | precipitation | Oc1ccc2ccc(Br)cc2c1C(NCC1CC1)c1ccc(Cl)cc1 (stereo not shown) [PB13, 7-Bromo-1-[(4-chlorophenyl)(cyclopropylmethylamino)methyl]naphthalen-2-ol]
 |  | precipitation | O=C1C(c2ccc(Cl)cc2)C(c2cc3ccc(Cl)cc3[nH]2)N1c1ccc(Cl)cc1 (stereo not shown) [PB15, 4-(6-Chloro-1H-indol-2-yl)-1,3-bis-(4-chlorophenyl)azetidin-2-one]
